Laboratory results taken from patent US9783485B1, “Crystalline inhibitor of 4-hydroxyphenylpyruvate dioxygenase, and a process of synthesis and crystallization thereof” (Dipharma S.A., priority 2016, dated 2017).

Test: Stability studies of nitisinone obtained through the process of the invention (storage; appearance, KF water, HPLC assay, impurities by HPLC and HPLC/MS)
Type: physicochemical
Source text: When referring to purity determined by HPLC techniques, said chromatograms are gathered at a wavelength of 235 nm. […] The presence of impurity-4 was checked by reverse HPLC/MS using the method described in the table underneath. [table] [table]

## O=C1CCCC(=O)C1C(=O)c1ccc(C(F)(F)F)cc1[N+](=O)[O-] [nitisinone, 2-(2-nitro-4-trifluoromethylbenzoyl)-1,3-cyclohexanedione]
Even in accelerated conditions, period of at least six months
  stability (in words): extremely stable
Independently from the storage conditions, reverse HPLC/MS
  impurity-4 content (in words): below the limit of quantification
